In this assay the test system is APJ Receptor. Kind of assay: In vivo investigations of the stimulation of the APJ receptor by apelin in anesthetized dogs (blood pressure, heart rate, coronary flow). The procedure:
Adult FBI (Foxhound-Beagle-Irish-Setter) dogs (20-30 kg) are initially anesthetized with thiopental Na (Trapanal, Byk-Gulden) 20-30 mg/kg i.v. Alcuronium chloride (Alloferin, Roche) 0.1 mg/kg is initially given i.v. for muscle relaxation. The animals are intubated and ventilated with a ⅓ O2/N2O mixture using an Engström respiratory pump with 15-18 breaths per min and a volume of 18-24 ml/kg. The ventilation is set accurately according to the arterial partial pressure of CO2, maintaining an average pCO2 of 35-45 mmHg. The maintenance anesthesia is done with isoflurane (Baxter) 1.5-3%. The body temperature is kept at 38° C.±0.1° C. The arterial blood pressure is measured via a catheder in the femoral artery. A thoracotomy is performed at the fifth intercostal space on the left side. The lung is retracted and fixed, and the pericardium is incised. A proximal section of the LAD (left coronary artery) distal to the first diagonal branch is exposed, and a calibrated electromagnetic flow probe (Gould Statham, model SP7515) is placed around the vessel and connected to a flowmeter (Statham, model SP-2202). A mechanical occluder is attached distal of the flow probe in such a way that no branches lie between flow probe and occluder.
Blood is taken and substances are administered through a catheder in the femoral vein. A peripheral ECG is recorded with subcutaneously fixed needles. A microtip pressure manometer (Millar model PC-350) is pushed through the left atrium in order to measure the left ventricular pressure. Measurement of the heart rate is controlled by the R wave of the ECG. The hemodynamic parameters and the coronary flow are recorded on a multichannel recorder throughout the experiment.
The experiment is started after a stabilization time of 1 hour. […] The heart rate, blood pressure and coronary flow are recorded and analyzed.

For apelin, the coronary flow entry runs as follows: (10 μg/kg i.v. bolus) “significant increase in the coronary flow”; (infusion 1, 3, 5, 10 μg/kg/min for 10 min) “dose-dependent increase in coronary flow”. Besides, the heart rate result (bolus and continuous infusion) was “without changing the heart rate”. For the same substance, where the note is “bolus and infusion”, the blood pressure result is “reduction in the blood pressure”. In addition, the “infusion rate at which maximum increase in coronary flow is reached” value (infusion for 10 min) was 3 µg/kg/min.
